# Laboratory results taken from ChEMBL document CHEMBL3112481, “Synthesis, nitric oxide release, and α-glucosidase inhibition of nitric oxide donating apigenin and chrysin derivatives” (Bioorg Med Chem, 2014).
# pIC50: −log10 of the molar value.
# Assays:
# [1] = Inhibition of alpha-glucosidase (unknown origin) assessed as hydrolysis of pNP-alpha-Glu into pNP measured for 10 mins by spectrophotometric analysis; design: species or system Homo sapiens
# [2] = Induction of nitric oxide release at 10^-4 M after 1 hr by Griess assay in presence of L-cysteine relative to control; assay type: physicochemical; settings: 100 µM
# Homo sapiens = organism: Homo sapiens; test: Potency index, ratio of apigenin IC50 to compound IC50 for alpha-glucosidase (unknown origin)
Compound,pIC50 [1],Activity [2] [%],Ratio IC50 (Homo sapiens)
C[C@H]1O[C@H](O[C@H]2[C@H](O)[C@@H](O)[C@@H](O[C@H]3[C@H](O)[C@@H](O)C(O)O[C@@H]3CO)O[C@@H]2CO)[C@H](O)[C@@H](O)[C@@H]1N[C@H]1C=C(CO)[C@@H](O)[C@H](O)[C@H]1O (stereo partly drawn) [ACARBOSE],3.25,,
O=C(COc1cc(O)c2c(=O)cc(-c3ccccc3)oc2c1)OCCO[N+](=O)[O-],4.62,,
O=[N+]([O-])OCC(CO[N+](=O)[O-])O[N+](=O)[O-] [NITROGLYCERIN],< 3.74,5.14,
O=C(COc1cc(O)c2c(=O)cc(-c3ccccc3)oc2c1)OCCCCCCO[N+](=O)[O-],5.47,,
O=C(COc1ccc(-c2cc(=O)c3c(O)cc(OCC(=O)OCCCCO[N+](=O)[O-])cc3o2)cc1)OCCCCO[N+](=O)[O-],5.63,1.757,7.2
O=C(COc1ccc(-c2cc(=O)c3c(O)cc(OCC(=O)OCCCCCCO[N+](=O)[O-])cc3o2)cc1)OCCCCCCO[N+](=O)[O-],5.59,1.147,
O=c1cc(-c2ccccc2)oc2cc(OCCCCCCO[N+](=O)[O-])cc(O)c12,4.68,,
O=c1cc(-c2ccccc2)oc2cc(OCCO[N+](=O)[O-])cc(O)c12,4.52,,
O=c1cc(-c2ccccc2)oc2cc(O)cc(O)c12 [CHRYSIN],4.11,,
O=C(COc1cc(O)c2c(=O)cc(-c3ccccc3)oc2c1)OCCCCO[N+](=O)[O-],4.85,,

# Continued, values first:
pIC50 [1],Activity [2] [%],Ratio IC50 (Homo sapiens),Compound
4.78,,,O=c1cc(-c2ccc(O)cc2)oc2cc(O)cc(O)c12 [APIGENIN]
3.64,,,OC[C@H]1NC[C@H](O)[C@@H](O)[C@@H]1O [DUVOGLUSTAT]
< 4.00,,,CC(=O)Oc1cc(OCCO[N+](=O)[O-])cc2oc(-c3ccccc3)cc(=O)c12
5.11,0.3,,O=c1cc(-c2ccc(OCCO[N+](=O)[O-])cc2)oc2cc(OCCO[N+](=O)[O-])cc(O)c12
4.73,,,O=c1cc(-c2ccccc2)oc2cc(OCCCCO[N+](=O)[O-])cc(O)c12
< 4.00,,,CC(=O)Oc1cc(OCCCCCCO[N+](=O)[O-])cc2oc(-c3ccccc3)cc(=O)c12
< 4.00,,,CC(=O)Oc1cc(OCCCCO[N+](=O)[O-])cc2oc(-c3ccccc3)cc(=O)c12
5.43,1.237,,O=C(COc1ccc(-c2cc(=O)c3c(O)cc(OCC(=O)OCCO[N+](=O)[O-])cc3o2)cc1)OCCO[N+](=O)[O-]
5.30,0.24,,O=c1cc(-c2ccc(OCCCCO[N+](=O)[O-])cc2)oc2cc(OCCCCO[N+](=O)[O-])cc(O)c12
5.34,0.49,,O=c1cc(-c2ccc(OCCCCCCO[N+](=O)[O-])cc2)oc2cc(OCCCCCCO[N+](=O)[O-])cc(O)c12
